Experiments:
Format in all cases: in vivo
[1] = test system: green foxtail (Setaria viridis, SETVI); assay: Post-emerge test, greenhouse herbicide activity screening; details: post-emerge, 14 days after application, rating scale 0-100
Text: (§1) A standard greenhouse herbicide activity screening system was used to evaluate the herbicidal efficacy and crop safety of these test compounds. Seven broadleaf weed species including redroot pigweed (Amaranthus retroflexus, AMARE, velvetleaf (Abutilon theophrasti, ABUTH), sicklepod (Cassia obtusifolia, CASOB), ivyleaf morningglory (Ipomoea hederacea, IPOHE), lambsquarters (Chenopodium album, CHEAL), common ragweed (Ambrosia artemisizfolia L., AMBEL), and cocklebur (Xanthium strumarium, XANST) were used as test species. Four grass weed species including green foxtail (Setaria viridis, SETVI), barnyardgrass (Echinochloa crus-galli, ECHCG), johnsongrass (Sorghum halepense, SORHA), and large crabgrass (Digitaria sanguinalis, DIGSA) were also used. In addition, three crop species, field corn (Zea mays L., var. Dekalb 535, CORN), soybean (Glycine max L., var. Pella 86, SOY), and is upland rice (Oryza sp., var. Tebonnet, RICE) were included.
(§2) All plants were grown in 10 cm square plastic pots which were filled with a sandy loam soil mix. For pre-emerge tests, seeds were planted one day prior to application of the test compounds. For post-emerge tests, seeds were planted 8-21 days prior to the test to allow emergence and good foliage development prior to application of the test substances. At the time of the post-emerge application, plants of all species were usually at the 2-3 leaf stage of development.
(§3) All test compounds Were dissolved in acetone and applied to the test units in a volume of 187 l /ha. Test materials were applied at rates ranging from 15 g ai/ha to 1000 g ai/ha using a track sprayer equipped with a TJ8001E even flow flat fan spray nozzle. Plants were arranged on a shelf so that the top of the canopy (post-emerge) or top of the soil surface (pre-emerge) was 40-45 cm below the nozzle. Pressurized air was used to force the test solution through the nozzle as it was mechanically advanced (via electrically driven chain drive) over the top of all test plants/pots. This application simulates a typical commercial field herbicide application.
(§4) In the post-emerge test, a commercial non-ionic surfactant was also included (0.25% v/v) to enhance wetting of the leaf surfaces of target plants. Immediately after application, test units of the pre-emerge applications were watered at the soil surface to incorporate the test materials. Subsequently, these test units were bottom-watered. Post-emerge test units were always bottom-watered.
(§5) At 14 days after application of the test materials, phytotoxicity ratings were recorded. A rating scale of 0-100 was used as previously described in Research Methods in Weed Science, 2nd edition, B. Truelove, Ed., Southern Weed Science Society, Auburn University, Auburn, Ala. 1977. Briefly, “0” corresponds to no damage and “100” corresponds to complete death of all plants in the test unit. This scale was used both to determine efficacy against weed species and damage to crop species. Herbicide activity data for various compounds of this invention, which are shown by compound No. in Tables 1-8, are shown in Tables 11 and 12.

[2] = test system: barnyardgrass (Echinochloa crus-galli, ECHCG); assay: as above; details: post-emerge, 14 days after application, rating scale 0-100
Text: as §1, §2, §3, §4, §5

[3] = test system: sicklepod (Cassia obtusifolia, CASOB); assay: as above; details: post-emerge, 14 days after application, rating scale 0-100
Text: as §1, §2, §3, §4, §5

[4] = test system: velvetleaf (Abutilon theophrasti, ABUTH); assay: as above; details: post-emerge, 14 days after application, rating scale 0-100
Text: as §1, §2, §3, §4, §5

[5] = test system: large crabgrass (Digitaria sanguinalis, DIGSA); assay: as above; details: post-emerge, 14 days after application, rating scale 0-100
Text: as §1, §2, §3, §4, §5

[6] = test system: redroot pigweed (Amaranthus retroflexus, AMARE); assay: as above; details: post-emerge, 14 days after application
Text: as §1, §2, §3, §4, §5

[7] = test system: lambsquarters (Chenopodium album, CHEAL); assay: as above; details: post-emerge, 14 days after application, rating scale 0-100
Text: as §1, §2, §3, §4, §5

[8] = test system: ivyleaf morningglory (Ipomoea hederacea, IPOHE); assay: as above; details: post-emerge, 14 days after application, rating scale 0-100
Text: as §1, §2, §3, §4, §5

[9] = test system: field corn (Zea mays L., var. Dekalb 535, CORN); assay: Pre-emerge test, crop safety; details: crop damage rating 0-100, 14 days after application
Text: as §1, §2, §3, §4, §5

[10] = test system: upland rice (Oryza sp., var. Tebonnet, RICE); assay: Pre-emerge test, crop safety; details: crop damage rating 0-100, 14 days after application
Text: as §1, §2, §3, §4, §5

[11] = test system: redroot pigweed (Amaranthus retroflexus, AMARE); assay: Pre-emerge test, greenhouse herbicide activity screening; details: phytotoxicity rating 0-100, 14 days after application
Text: as §1, §2
as §3, with “Test materials were applied at rates ranging from 15 g ai/ha to 1000 g ai/ha using a track sprayer equipped with a TJ8001E even flow flat fan spray nozzle.” left out
as §4, §5

[12] = test system: green foxtail (Setaria viridis, SETVI); assay: as above; details: phytotoxicity rating 0-100, 14 days after application
Text: as §1, §2, §3, §4, §5

[13] = test system: barnyardgrass (Echinochloa crus-galli, ECHCG); assay: as above; details: phytotoxicity rating 0-100, 14 days after application
Text: as §1, §2, §3, §4, §5

[14] = test system: sicklepod (Cassia obtusifolia, CASOB); assay: as above; details: phytotoxicity rating 0-100, 14 days after application
Text: as §1, §2, §3, §4, §5

[15] = test system: velvetleaf (Abutilon theophrasti, ABUTH); assay: as above; details: phytotoxicity rating 0-100, 14 days after application
Text: as §1, §2, §3, §4, §5

[16] = test system: large crabgrass (Digitaria sanguinalis, DIGSA); assay: as above; details: phytotoxicity rating 0-100, 14 days after application
Text: as §1, §2, §3, §4, §5

[17] = test system: lambsquarters (Chenopodium album, CHEAL); assay: as above; details: phytotoxicity rating 0-100, 14 days after application
Text: as §1, §2, §3, §4, §5

[18] = test system: ivyleaf morningglory (Ipomoea hederacea, IPOHE); assay: as above; details: phytotoxicity rating 0-100, 14 days after application
Text: as §1, §2, §3, §4, §5

[19] = test system: field corn (Zea mays L., var. Dekalb 535, CORN); assay: Post-emerge test, crop safety; details: post-emerge, 14 days after application, rating scale 0-100
Text: as §1, §2, §3, §4, §5

[20] = test system: upland rice (Oryza sp., var. Tebonnet, RICE); assay: Post-emerge test, crop safety; details: post-emerge, 14 days after application, rating scale 0-100
Text: as §1, §2, §3, §4, §5

COc1ccc(COC(=O)Nc2c(OC)c(Cl)cc(F)c2-n2c(=O)cc(C(F)(F)F)n(C)c2=O)cc1 [4-40]
90: phytotoxicity rating SETVI ([1]; 250 g ai/ha) | phytotoxicity rating ECHCG ([2]; 250 g ai/ha) | phytotoxicity rating DIGSA ([5]; 250 g ai/ha) | Pre-emerge Herbicidal Activity CASOB ([14]; 250 g ai/ha) | Pre-emerge Herbicidal Activity IPOHE ([18]; 250 g ai/ha)
80: phytotoxicity rating SETVI ([1]; 63 g ai/ha)
0: Pre-emerge Herbicidal Activity CORN ([9]; 63 g ai/ha)
75: Pre-emerge Herbicidal Activity CORN ([9]; 250 g ai/ha)
50: phytotoxicity rating ECHCG ([2]; 63 g ai/ha)
100: phytotoxicity rating CASOB ([3]; 63 g ai/ha) | phytotoxicity rating CASOB ([3]; 250 g ai/ha) | phytotoxicity rating ABUTH ([4]; 63 g ai/ha) | phytotoxicity rating ABUTH ([4]; 250 g ai/ha) | phytotoxicity rating AMARE ([6]; 63 g ai/ha, rating scale 0-100 (0 no damage, 100 complete death)) | phytotoxicity rating AMARE ([6]; 250 g ai/ha, rating scale 0-100) | phytotoxicity rating CHEAL ([7]; 63 g ai/ha) | phytotoxicity rating CHEAL ([7]; 250 g ai/ha) | phytotoxicity rating IPOHE ([8]; 63 g ai/ha) | phytotoxicity rating IPOHE ([8]; 250 g ai/ha) | Pre-emerge Herbicidal Activity AMARE ([11]; 63 g ai/ha) | Pre-emerge Herbicidal Activity AMARE ([11]; 250 g ai/ha) | Pre-emerge Herbicidal Activity SETVI ([12]; 63 g ai/ha) | Pre-emerge Herbicidal Activity SETVI ([12]; 250 g ai/ha) | Pre-emerge Herbicidal Activity ABUTH ([15]; 63 g ai/ha) | Pre-emerge Herbicidal Activity ABUTH ([15]; 250 g ai/ha) | Pre-emerge Herbicidal Activity DIGSA ([16]; 63 g ai/ha) | Pre-emerge Herbicidal Activity DIGSA ([16]; 250 g ai/ha) | Pre-emerge Herbicidal Activity CHEAL ([17]; 63 g ai/ha) | Pre-emerge Herbicidal Activity CHEAL ([17]; 250 g ai/ha)
70: Pre-emerge Herbicidal Activity RICE ([10]; 250 g ai/ha) | phytotoxicity rating CORN (crop damage) ([19]; 250 g ai/ha)
40: phytotoxicity rating DIGSA ([5]; 63 g ai/ha) | phytotoxicity rating RICE (crop damage) ([20]; 63 g ai/ha)
60: Pre-emerge Herbicidal Activity ECHCG ([13]; 63 g ai/ha) | Pre-emerge Herbicidal Activity CASOB ([14]; 63 g ai/ha) | phytotoxicity rating RICE (crop damage) ([20]; 250 g ai/ha)
85: Pre-emerge Herbicidal Activity ECHCG ([13]; 250 g ai/ha)
30: Pre-emerge Herbicidal Activity RICE ([10]; 63 g ai/ha) | Pre-emerge Herbicidal Activity IPOHE ([18]; 63 g ai/ha) | phytotoxicity rating CORN (crop damage) ([19]; 63 g ai/ha)

Source: US6355799B1, “Substituted benzene compounds, process for their preparation, and herbicidal and defoliant compositions containing them” (ISK Americas Incorporated, priority 1997, dated 2002)
